Source: patent US20170239253A1, “COMPOSITIONS AND METHODS FOR THE REDUCTION OR PREVENTION OF NON-ALCOHOLIC STEATOHEPATITIS (NASH)” (NuSirt Sciences, Inc., priority 2015, published 2017)

Legend:
[1] = 25 mg icariin/kg diet; corresponding to 4 mg/kg body weight/day; cited from earlier work
[2] = tested on: C57Bl/6 mice on high fat diet (HFD); assay: Prophylactic treatment concurrent with high fat diet: liver mass and hepatic lipid accumulation; format: in vivo; settings: six weeks, metformin alone 1.5 g/kg
Description: In this study, the prophylactic effects of metformin alone, and various combinations of metformin, leucine, and resveratrol on liver mass and hepatic steatosis are assessed. C57Bl/6 mice are assigned to the following experimental groups as depicted in Table 25: Drug treatments and high fat diet feeding (as described in Example 1) are initiated on the same day and are carried out for six weeks. The effects of the treatments and diet on liver mass and hepatic lipid accumulation are assessed as described in the preceding examples. […] In this study, the prophylactic effects of metformin alone, and various combinations of metformin, HMB, and resveratrol on liver mass and hepatic steatosis are assessed. C57Bl/6 mice are assigned to the following experimental groups as depicted in Table 26: Drug treatments and high fat diet feeding (as described in Example 1) are initiated on the same day and are carried out for six weeks. The effects of the treatments and diet on liver mass and hepatic lipid accumulation are assessed as described in the preceding examples. […] In this study, the prophylactic effects of sub-therapeutic leucine alone, and co-administration of leucine and the PDE5-specific inhibitor icariin on liver mass and hepatic steatosis are assessed. […] The effects of the treatments and diet on liver mass and hepatic lipid accumulation are assessed as described in the preceding examples.

[3] = tested on: C57Bl/6 mice on high fat diet (HFD); settings: Example 3; metformin alone 1.5 g/kg diet; leucine 24 g/kg + metformin 0.5 g/kg
Description: Chronic high fat diet was used in C57Bl/6 mice as an experimental model of hepatic steatosis. Male C57/BL6 mice were either maintained on standard low-fat diet (control; LFD; 10% energy from fat) or placed on a high fat (HFD; 60% energy from fat, Research Diets #D12492, Research Diets, Inc., New Brunswick, N.J.) at six weeks of age to induce obesity and fatty infiltration of the liver. […] Animals were then randomized to treatments for an additional six weeks, with 10 animals per group, as specified in the following examples.
In this study, the effects of metformin alone (therapeutic dose) vs. combination therapy with sub-therapeutic amounts of metformin and leucine on liver weight and hepatic lipid accumulation were assessed.

[4] = tested on: C57Bl/6 mice on high fat diet (HFD); assay: Liver weight after six weeks treatment in chronic high fat diet model of hepatic steatosis; format: in vivo
Description: (§1) Chronic high fat diet was used in C57Bl/6 mice as an experimental model of hepatic steatosis. Male C57/BL6 mice were either maintained on standard low-fat diet (control; LFD; 10% energy from fat) or placed on a high fat (HFD; 60% energy from fat, Research Diets #D12492, Research Diets, Inc., New Brunswick, N.J.) at six weeks of age to induce obesity and fatty infiltration of the liver. […] Animals fed with LFD have normal cellular structure in liver cells. […] Animals were then randomized to treatments for an additional six weeks, with 10 animals per group, as specified in the following examples.
(§2) The 1.5 g/kg diet of metformin corresponds to a therapeutically effective dose of metformin in humans.
(§3) Following induction of hepatic steatosis as described in Example 1, animals were treated for six weeks according to the following treatment groups as depicted in Table 22:
(§4) In this study, the effects of metformin alone (therapeutic dose) vs. combination therapy with sub-therapeutic amounts of metformin and HMB on liver weight and hepatic lipid accumulation were assessed. Following induction of hepatic steatosis as described in Example 1, animals were treated for six weeks according to the following treatment groups as depicted in Table 23:

[5] = tested on: C57Bl/6 mice on high fat diet (HFD); assay: Histological analysis of hepatic lipid accumulation (hepatic steatosis), high fat diet model
Description: as §1, §2, §3, §4

Molecule	effect on liver mass or hepatic lipid accumulation [1]	HFD-induced increase in liver mass and hepatic lipid accumulation (prophylactic) ([2]; Example 6, treatment and HFD started same day, leucine 24 g/kg + metformin 0.15-0.50 g/kg ± resveratrol 12.5 mg/kg diet)	HFD-induced increase in liver mass and hepatic lipid accumulation (prophylactic) ([2]; Example 7, CaHMB 2 g/kg + metformin 0.15-0.50 g/kg ± resveratrol 12.5 mg/kg diet)	effect on liver triglycerides [3]	effect on liver weight ([4]; Example 2, metformin alone 1.5 g/kg diet, leucine 24 g/kg diet, resveratrol 12.5 mg/kg diet)	effect on liver weight ([4]; Example 3, metformin alone 1.5 g/kg diet, leucine 24 g/kg + metformin 0.25 and 0.5 g/kg, p<0.02 vs. HFD)	effect on liver weight ([4]; Example 4, metformin alone 1.5 g/kg diet, CaHMB 2 g/kg diet + metformin 0.25 and 0.5 g/kg, p<0.03)	hepatic steatosis (histology) ([5]; Example 2, HFD mice, six weeks, metformin alone at therapeutic dosage, combinations at sub-therapeutic dosages)	hepatic steatosis (histology) ([5]; Example 3, metformin alone therapeutic, leucine + metformin 0.5 g/kg)
COc1ccc(-c2oc3c(CC=C(C)C)c(O[C@@H]4O[C@H](CO)[C@@H](O)[C@H](O)[C@H]4O)cc(O)c3c(=O)c2O[C@@H]2O[C@@H](C)[C@H](O)[C@@H](O)[C@H]2O)cc1 [icariin]	no effect								
metformin		attenuates the HFD-induced increase in liver mass and hepatic lipid accumulation	attenuates the HFD-induced increase in liver mass and hepatic lipid accumulation	partially reversed the effect of high fat diet on liver triglycerides	partially reverse the effect of high fat diet on liver weight	reversed the effect of high fat diet on liver weight back to control levels	reversed the effect of high fat diet on liver weight back to control levels	partial reversal of the effects of HFD on hepatic steatosis	partially reversed hepatic steatosis
